# Data reported in patent publication US20250136578A1 (Kolm Therapeutics Inc., priority 2023, published 2025).
# What was measured:
# AR / CBP ternary complex = AR / CBP ternary complex (Homo sapiens, UniProt P10275+Q92793); test: Ternary complex formation assay (sandwich ELISA, AR capture, CBP antibody detection) in VCaP cell lysates; format: cell-based; settings: treated 1.5 hours, rabbit CBP or p300 antibody detection, average, read-out: Average Ternary Complex
# Method in brief: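 VCaP cells in 5% charcoal-stripped FBS were cultured ≥3 days and then given bifunctional compound for 1.5 h. Lysates went onto AR-antibody-coated plates. Bound CBP (or p300) was detected with a rabbit antibody plus HRP anti-rabbit, using QuantaRed chemifluorescence (ex 570/em 585) read immediately, at 5 min and at 15 min.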
# VCaP cells = test: VCaP growth inhibition assay (CTG); format: cell-based; settings: Homo sapiens, 216 h, 30 pM R1881, 9 days
# Protocol: VCaP cells (ATCC Cat #CRL-2876) are plated at 1×10^4 cells per well of a white plastic 96-well cluster plate (Thermo Scientific Nunc Cat #165306) in 100 uL phenol red-free DMEM (Gibco Cat #21063-029) media with 5% CSS (Omega Scientific Cat #FB-04). Cluster plates are returned to the incubator (37*C/5% CO2) for 72 hours prior to treatment. Just prior to treatment, 100 uL of phenol red-free DMEM/5% CSS and 60 pM R1881 (Sigma Cat #R0908-10 mg) was added to each well of the cluster plates (Final R1881 concentration=30 pM). Compounds (200X) were added to each well in a volume of 1 uL, with serial dilutions (1:5) from 20 uM to 2 pM (final concentrations in well are 100 nM to 10 fM). Cluster plates are returned to the incubator for 9 days.
# After the 9-day treatment period, media was removed from the cluster plates by inversion and 100 uL room temperature CTG reagent (Promega Cat #G7573) is added to each well. The cluster plates are placed on a shaker and incubated at room temperature for 20 minutes. Following this shaking/incubation, cluster plates are read on a luminometer (BMG ClarioStar). IC50 values are obtained by graphing the RLU data vs. compound concentration with nonlinear regression 4-parameter logistic curves (GraphPad Prism).
# Chain of AR / CBP ternary complex (P10275 whole entry): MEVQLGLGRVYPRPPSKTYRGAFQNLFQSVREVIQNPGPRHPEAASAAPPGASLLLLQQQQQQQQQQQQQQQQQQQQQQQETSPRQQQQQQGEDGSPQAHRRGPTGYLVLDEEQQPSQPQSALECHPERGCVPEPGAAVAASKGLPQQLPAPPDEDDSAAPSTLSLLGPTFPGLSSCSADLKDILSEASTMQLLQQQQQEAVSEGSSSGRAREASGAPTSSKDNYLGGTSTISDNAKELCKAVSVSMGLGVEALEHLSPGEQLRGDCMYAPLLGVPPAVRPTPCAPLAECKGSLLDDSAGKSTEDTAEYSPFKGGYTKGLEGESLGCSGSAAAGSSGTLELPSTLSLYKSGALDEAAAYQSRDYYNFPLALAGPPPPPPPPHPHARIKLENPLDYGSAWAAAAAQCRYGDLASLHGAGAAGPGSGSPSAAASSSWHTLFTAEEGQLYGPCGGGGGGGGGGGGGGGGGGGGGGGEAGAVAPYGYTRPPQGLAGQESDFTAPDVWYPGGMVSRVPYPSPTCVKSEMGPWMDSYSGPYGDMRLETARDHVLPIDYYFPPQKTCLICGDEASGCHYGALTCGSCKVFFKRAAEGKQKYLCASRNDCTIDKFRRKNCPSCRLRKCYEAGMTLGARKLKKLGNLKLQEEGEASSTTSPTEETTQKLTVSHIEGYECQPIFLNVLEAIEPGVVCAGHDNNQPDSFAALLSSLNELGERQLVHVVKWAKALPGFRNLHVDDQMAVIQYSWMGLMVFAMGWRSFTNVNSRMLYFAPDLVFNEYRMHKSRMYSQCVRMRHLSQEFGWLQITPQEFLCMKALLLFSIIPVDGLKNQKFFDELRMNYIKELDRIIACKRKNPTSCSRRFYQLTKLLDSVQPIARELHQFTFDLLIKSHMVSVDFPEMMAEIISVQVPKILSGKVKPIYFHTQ
# Chain of AR / CBP ternary complex (Q92793 2-2442): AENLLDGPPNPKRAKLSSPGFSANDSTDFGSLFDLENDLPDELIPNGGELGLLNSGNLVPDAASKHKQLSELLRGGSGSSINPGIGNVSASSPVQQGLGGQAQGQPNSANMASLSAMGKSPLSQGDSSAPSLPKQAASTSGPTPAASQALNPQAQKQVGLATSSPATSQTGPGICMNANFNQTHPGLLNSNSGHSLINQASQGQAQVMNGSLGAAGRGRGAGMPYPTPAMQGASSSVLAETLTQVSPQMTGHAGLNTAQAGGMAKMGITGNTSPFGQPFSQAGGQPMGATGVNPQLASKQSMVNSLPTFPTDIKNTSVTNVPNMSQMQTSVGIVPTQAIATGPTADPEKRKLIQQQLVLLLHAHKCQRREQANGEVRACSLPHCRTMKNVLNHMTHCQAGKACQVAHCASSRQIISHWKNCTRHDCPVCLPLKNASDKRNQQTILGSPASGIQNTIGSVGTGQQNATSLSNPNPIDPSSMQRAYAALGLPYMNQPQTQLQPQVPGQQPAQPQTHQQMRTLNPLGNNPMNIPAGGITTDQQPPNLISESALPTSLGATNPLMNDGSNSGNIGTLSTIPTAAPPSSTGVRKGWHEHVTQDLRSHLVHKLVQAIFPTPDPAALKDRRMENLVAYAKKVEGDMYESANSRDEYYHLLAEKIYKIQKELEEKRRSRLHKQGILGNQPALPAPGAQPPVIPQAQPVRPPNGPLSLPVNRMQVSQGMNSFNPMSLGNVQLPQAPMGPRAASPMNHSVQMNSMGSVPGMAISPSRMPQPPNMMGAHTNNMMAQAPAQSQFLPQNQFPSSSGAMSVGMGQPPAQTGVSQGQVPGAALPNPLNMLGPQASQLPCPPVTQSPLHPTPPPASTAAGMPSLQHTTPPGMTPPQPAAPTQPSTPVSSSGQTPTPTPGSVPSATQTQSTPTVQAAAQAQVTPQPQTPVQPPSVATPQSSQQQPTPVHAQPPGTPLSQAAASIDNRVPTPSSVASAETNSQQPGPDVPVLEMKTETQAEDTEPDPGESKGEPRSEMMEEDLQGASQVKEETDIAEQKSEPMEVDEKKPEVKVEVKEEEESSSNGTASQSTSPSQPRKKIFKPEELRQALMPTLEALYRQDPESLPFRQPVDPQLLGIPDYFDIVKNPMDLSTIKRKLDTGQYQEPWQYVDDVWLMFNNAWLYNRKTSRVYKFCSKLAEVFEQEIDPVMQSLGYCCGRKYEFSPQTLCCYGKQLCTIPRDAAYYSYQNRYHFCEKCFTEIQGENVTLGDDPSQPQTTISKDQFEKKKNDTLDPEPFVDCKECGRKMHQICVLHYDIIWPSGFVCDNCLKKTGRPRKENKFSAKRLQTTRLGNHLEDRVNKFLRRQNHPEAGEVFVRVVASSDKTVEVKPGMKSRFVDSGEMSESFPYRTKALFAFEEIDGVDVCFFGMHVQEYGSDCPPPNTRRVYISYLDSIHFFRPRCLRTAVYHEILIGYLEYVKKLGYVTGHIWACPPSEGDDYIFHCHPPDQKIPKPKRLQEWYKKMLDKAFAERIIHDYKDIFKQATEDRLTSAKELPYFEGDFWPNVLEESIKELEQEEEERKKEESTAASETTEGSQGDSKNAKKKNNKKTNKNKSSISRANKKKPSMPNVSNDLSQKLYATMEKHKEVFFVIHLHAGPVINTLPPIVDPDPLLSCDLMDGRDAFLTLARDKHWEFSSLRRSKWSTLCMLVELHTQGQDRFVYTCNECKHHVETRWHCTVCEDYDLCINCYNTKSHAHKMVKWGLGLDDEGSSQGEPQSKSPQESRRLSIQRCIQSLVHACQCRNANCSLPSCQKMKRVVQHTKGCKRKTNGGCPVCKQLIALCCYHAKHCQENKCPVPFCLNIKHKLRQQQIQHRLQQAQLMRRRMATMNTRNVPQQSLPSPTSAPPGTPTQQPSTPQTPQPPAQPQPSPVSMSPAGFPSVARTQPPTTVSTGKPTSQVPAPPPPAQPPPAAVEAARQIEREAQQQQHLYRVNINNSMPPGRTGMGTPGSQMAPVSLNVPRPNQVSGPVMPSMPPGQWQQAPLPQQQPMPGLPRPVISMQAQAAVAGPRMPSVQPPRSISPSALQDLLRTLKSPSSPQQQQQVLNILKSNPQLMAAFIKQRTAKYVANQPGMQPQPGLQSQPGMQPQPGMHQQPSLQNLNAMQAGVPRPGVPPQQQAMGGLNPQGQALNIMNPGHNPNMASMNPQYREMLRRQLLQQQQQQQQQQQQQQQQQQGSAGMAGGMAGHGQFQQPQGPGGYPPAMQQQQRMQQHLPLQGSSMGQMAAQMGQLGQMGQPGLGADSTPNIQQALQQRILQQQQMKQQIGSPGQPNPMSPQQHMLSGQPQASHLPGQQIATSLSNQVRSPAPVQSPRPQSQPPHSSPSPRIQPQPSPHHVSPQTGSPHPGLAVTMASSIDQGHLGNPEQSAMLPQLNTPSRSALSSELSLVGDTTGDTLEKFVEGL
EC50 (AR / CBP ternary complex) [nM],IC50 (VCaP cells) [nM],SMILES
1 to 10,1 to 100,"CC(=O)N1CCc2c(c(N3CCCc4cc(-c5cscn5)c(C(F)F)cc43)nn2C2CCN([C@@H]3CCCN(c4ccc(C(=O)N[C@H]5CC[C@H](Oc6ccc(C#N)c(Cl)c6)CC5)nn4)C3)CC2)C1 [Compound 261, 6-[(3R)-3-[4-[5-acetyl-3-[7-(difluoromethyl)-6-thiazol-4-yl-3,4-dihydro-2H-quinolin-1-yl]-6,7-dihydro-4H-pyrazolo[4,3-c]pyridin-1-yl]-1-piperidyl]-1-piperidyl]-N-[4-(3-chloro-4-cyano-phenoxy)cyclohexyl]pyridazine-3-carboxamide]"
< 1,0.1 to 1,"CC(=O)N1CCc2c(c(N3CCCc4cc(C#N)ccc43)nn2C2CC3(C2)CN(CC2CC4(C2)CN(c2ccc(C(=O)N[C@H]5CC[C@H](Oc6ccc(C#N)c(Cl)c6)CC5)nn2)C4)C3)C1 (stereo partly drawn) [Compound 45, 6-[6-[[6-[5-acetyl-3-(6-cyano-3,4-dihydro-2H-quinolin-1-yl)-6,7-dihydro-4H-pyrazolo[4,3-c]pyridin-1-yl]-2-azaspiro [3.3]heptan-2-yl]methyl]-2-azaspiro[3.3]heptan-2-yl]-N-[4-(3-chloro-4-cyano-phenoxy)cyclohexyl] pyridazine-3-carboxamide]"
< 1,≤ 0.1,"CC(=O)N1CCc2c(c(N3CCCc4cc(-c5cnn(C)c5)c(C(F)F)cc43)nn2C2CC3(CCN(C4CCN(c5ccc(C(=O)N[C@H]6CC[C@H](Oc7ccc(C#N)c(Cl)c7)CC6)nn5)CC4)CC3)C2)C1 [Compound 239, 6-[4-[2-[5-acetyl-3-[7-(difluoromethyl)-6-(1-methylpyrazol-4-yl)-3,4-dihydro-2H-quinolin-1-yl]-6,7-dihydro-4H-pyrazolo[4,3-c]pyridin-1-yl]-7-azaspiro[3.5]nonan-7-yl]-1-piperidyl]-N-[4-(3-chloro-4-cyano-phenoxy)cyclohexyl]pyridazine-3-carboxamide]"
< 1,0.1 to 1,"CC(=O)N1CCc2c(c(-c3cccc4cc(-c5cnn(CCC6CC7(C6)CN(c6ccc(C(=O)N[C@H]8CC[C@H](Oc9ccc(C#N)c(Cl)c9)CC8)nn6)C7)c5)ncc34)nn2C2CCOCC2)C1 [Compound 49, 6-[6-[2-[4-[8-(5-acetyl-1-tetrahydropyran-4-yl-6,7-dihydro-4H-pyrazolo[4,3-c]pyridin-3-yl)-3-isoquinolyl]pyrazol-1-yl]ethyl]-2-azaspiro[3.3]heptan-2-yl]-N-[4-(3-chloro-4-cyano-phenoxy)cyclohexyl]pyridazine3-carboxamide]"
< 1,0.1 to 1,"CC(=O)N1CCc2c(c(N3CCCc4cc(-c5cnn(C)c5)c(C)cc43)nn2C2CCN(C3CCC4(CC3)CN(c3ccc(C(=O)N[C@H]5CC[C@H](Oc6ccc(C#N)c(C)c6)CC5)nn3)C4)CC2)C1 [Compound 298, 6-[7-[4-[5-acetyl-3-[7-methyl-6-(1-methylpyrazol-4-yl)-3,4-dihydro-2H-quinolin-1-yl]-6,7-dihydro-4H-pyrazolo[4,3-c]pyridin-1-yl]-1-piperidyl]-2-azaspiro[3.5]nonan-2-yl]-N-[4-(4-cyano-3-methyl-phenoxy)cyclohexyl] pyridazine-3-carboxamide]"
< 1,≤ 0.1,"CC(=O)N1CCc2c(c(N3CCCc4cc(-c5cnn(C)c5)c(C(F)F)cc43)nn2[C@H]2CC[C@H](N3CCN(c4ccc(C(=O)N[C@H]5CC[C@H](Oc6ccc(C#N)c(Cl)c6)CC5)nn4)CC3)CC2)C1 [Compound 250, 6-[4-[4-[5-acetyl-3-[7-(difluoromethyl)-6-(1-methylpyrazol-4-yl)-3,4-dihydro-2H-quinolin-1-yl]-6,7-dihydro-4H-pyrazolo[4,3-c]pyridin-1-yl]cyclohexyl]piperazin-1-yl]-N-[4-(3-chloro-4-cyano-phenoxy)cyclohexyl]pyridazine-3-carboxamide]"
< 1,≤ 0.1,"CC(=O)N1CCc2c(c(-c3cccc4cc(-c5ccc(CCN6CCN(c7ccc(C(=O)N[C@H]8CC[C@H](Oc9ccc(C#N)c(Cl)c9)CC8)nn7)CC6)nc5)ncc34)nn2C)C1 [Compound 30, 6-[4-[2-[5-[8-(5-acetyl-1-methyl-6,7-dihydro-4H-pyrazolo[4,3-c]pyridin-3-yl)-3-isoquinolyl]-2-pyridyl]ethyl]piperazin-1-yl]-N-[4-(3-chloro-4-cyano-phenoxy)cyclohexyl]pyridazine-3-carboxamide]"

# Further lines, the molecule ahead of its results:
SMILES,EC50 (AR / CBP ternary complex) [nM],IC50 (VCaP cells) [nM]
"Cn1cc(-c2cc3cccc(-c4cc(C5=CCN(CC6CCN(c7ccc(C(=O)N[C@H]8CC[C@H](Oc9ccc(C#N)c(Cl)c9)CC8)nn7)CC6)CC5)c5c(c4)n(C)c(=O)n5C)c3cn2)cn1 [Compound 147, N-[4-(3-chloro-4-cyano-phenoxy)cyclohexyl]-6-[4-[[4-[1,3-dimethyl-6-[3-(1-methylpyrazol-4-yl)-8-isoquinolyl]-2-oxo-benzimidazol-4-yl]-3,6-dihydro-2H-pyridin-1-yl]methyl]-1-piperidyl]pyridazine-3-carboxamide]",< 1,0.1 to 1
"CC(=O)N1CCc2c(c(-c3cccc4cc(C#N)ncc34)nn2C2CCN(CC3CCN(c4ccc(C(=O)N[C@H]5CC[C@H](Oc6ccc(C#N)c(Cl)c6)CC5)nn4)CC3)CC2)C1 [Compound 121, 6-[4-[[4-[5-acetyl-3-(3-cyano-8-isoquinolyl)-6,7-dihydro-4H-pyrazolo[4,3-c]pyridin-1-yl]-1-piperidyl]methyl]-1-piperidyl]-N-[4-(3-chloro-4-cyano-phenoxy)cyclohexyl]pyridazine-3-carboxamide]",< 1,0.1 to 1
"CC(=O)N1CCc2c(c(N3CCCc4cc(-c5cnn(C)c5)c(C(F)F)cc43)nn2C2CCN(C3CC(C#Cc4ccc(C(=O)N[C@H]5CC[C@H](Oc6ccc(C#N)c(Cl)c6)CC5)nn4)C3)CC2)C1 (stereo partly drawn) [Compound 195, 6-[2-[3-[4-[5-acetyl-3-[7-(difluoromethyl)-6-(1-methylpyrazol-4-yl)-3,4-dihydro-2H-quinolin-1-yl]-6,7-dihydro-4H-pyrazolo[4,3-c]pyridin-1-yl]-1-piperidyl]cyclobutyl]ethynyl]-N-[4-(3-chloro-4-cyano-phenoxy)cyclohexyl]pyridazine-3-carboxamide]",< 1,≤ 0.1
"CC(=O)N1CCc2c(c(N3CCCc4cc(-c5cnn(C)c5)c(C(F)F)cc43)nn2C2CCN(C(=O)C3CCN(c4ccc(C(=O)N[C@H]5CC[C@H](Oc6ccc(C#N)c(Cl)c6)CC5)cc4)CC3)CC2)C1 [Compound 159, 4-[4-[4-[5-acetyl-3-[7-(difluoromethyl)-6-(1-methylpyrazol-4-yl)-3,4-dihydro-2H-quinolin-1-yl]-6,7-dihydro-4H-pyrazolo[4,3-c]pyridin-1-yl]piperidine-1-carbonyl]-1-piperidyl]-N-[4-(3-chloro-4-cyano-phenoxy)cyclohexyl]benzamide]",< 1,≤ 0.1
"CC(=O)N1CCc2c(c(N3CCCc4cc(C#N)ccc43)nn2C2CCN(C[C@H]3CCN(c4ccc(C(=O)N[C@H]5CC[C@H](Oc6ccc(C#N)c(Cl)c6)CC5)nn4)C[C@@H]3C)CC2)C1 (stereo in doubt) [Compound 105, 6-[4-[[4-[5-acetyl-3-(6-cyano-3,4-dihydro-2H-quinolin-1-yl)-6,7-dihydro-4H-pyrazolo[4,3-c]pyridin-1-yl]-1-piperidyl]methyl]-3-methyl-1-piperidyl]-N-[4-(3-chloro-4-cyano-phenoxy)cyclohexyl]pyridazine-3-carboxamide]",< 1,0.1 to 1
